# Source: patent US7691382B2, “Antiviral polypeptides comprising tandem repeats of APOE 141-149 and variants thereof” (priority 2003, dated 2010)
# Read-outs that look alike come from different tables or passages of the source. Peptide text beside a SMILES is read from it.
# Test system: HSV1
# Assay type: cell-based, Human herpes simplex virus type 1
# Conditions: for efficacy for reducing HSV1 infectivity (in words): Examples 2 and 3
# Protocol: African Green Monkey Kidney (Vero) cells were maintained in Eagle's minimum essential medium with Earle's salt (EMEM) and supplemented with 10% foetal calf serum (heat-inactivated), 4 mM L-glutamine, and 1% (v/v) nonessential amino acids, plus penicillin and streptomycin (100 IU/mg and […], respectively) (maintenance medium referred to as 10% EMEM). The cells were incubated at 37° C. in a humidified atmosphere of air with 5% CO2.
# On harvesting, monolayers were washed in phosphate-buffered saline (PBS), and dislodged by incubating with trypsin in PBS for 30 min, before inactivating trypsin by addition of an equal volume of 10% EMEM and centrifuging at 500 g (5 min, 4° C.). Cell pellets were resuspended in 10% EMEM, prior to cell counting and seeding of 24-well plates. For antiviral assays, medium containing only 0.5% FCS was used (referred to as 0.5% EMEM).
# Three separate passages of HSV1 virus were prepared by infecting Vero cells, and preparing semi-pure suspensions of virus from tissue culture supernatant and cell lysates, before freezing aliquots of virus at −85° C. Viral infectivity was assessed by carrying out plaque assays on serial dilutions of thawed aliquots (expressed in pfu/ml).
# Peptides were obtained in lyophilised form from a commercial supplier (AltaBioscience, University of Birmingham or Advanced Biomedical), and were produced at 5 micromole scale. N-terminals were protected by addition of an acetyl group, and the C-terminals were protected by addition of an amide group.
# Small quantities of peptide were weighed in sterile Eppendorf tubes, before addition of sufficient 0.5% EMEM to produce a 1.5 mM stock solution, which was frozen at −20° C. in aliquots.
# Vero cells were seeded at 125,000 cells per well in 10% EMEM, and were incubated overnight resulting in confluent monolayers. […] Virus stocks (p3) were thawed, and diluted in 0.5% EMEM such that there were around 100 pfu in 100 μl. Each 24-well plate was inoculated separately. Firstly 100 μl of virus stock was added to the peptide or control medium arranged on a 96-well plate. This was incubated at 37° C. for ten minutes before inoculation. Medium was removed from four wells of a 24-well plate containing confluent Vero, and the 200 μl inoculum added to the appropriate well. Once all wells were treated, the 24-well plate was incubated for a further 60-80 minutes. Finally the peptide-containing inoculum was removed, and 1 ml of 1% EMEM containing 1% carboxymethylcellulose was added to each well. Plates were incubated for a further 22 hours or in some experiments 40 hours, before removal of overlay, and addition of 10% formaldehyde in PBS. After a further one hour incubation, fixative was removed, monolayers washed several times with tap water, and stained with carbol fuchsin solubilised in water. After 30 minutes stain was removed, and plates washed several times with tap water, before being air dried. Plaques were counted using an Olympus IX70 Inverting Microscope, and antiviral effect expressed as a percentage of the control value for each peptide concentration. The IC50 was calculated from plots of inhibitory effect against peptide concentration.
# [1] = HSV-1, Vero cells, Table 6 (Example 3), read-out: IC50
Structure (SMILES),IC50 [µM],efficacy for reducing HSV1 infectivity (in words),"IC50 (HSV1, Vero cells, Table 4 (Example 2), read-out: Apparent IC50) [µM]",IC50 [1] [µM],"IC50 (HSV1, Vero cells, Table 5 (Example 2), read-out: Apparent IC50) [µM]"
CC(=O)N[C@@H](CCC(=O)O)C(=O)N[C@@H](CCCNC(=N)N)C(=O)N[C@@H](CCCCN)C(=O)N[C@@H](CCC(=O)O)C(=O)N[C@@H](CCCNC(=N)N)C(=O)N[C@@H](CCCCN)C(=O)N[C@@H](CCCNC(=N)N)C(=O)N[C@@H](CCC(=O)O)C(=O)N[C@@H](CCC(=O)O)C(=O)N[C@@H](CCC(=O)O)C(=O)N[C@@H](CCCNC(=N)N)C(=O)N[C@@H](CCCCN)C(=O)N[C@@H](CCC(=O)O)C(=O)N[C@@H](CCCNC(=N)N)C(=O)N[C@@H](CCCCN)C(=O)N[C@@H](CCCNC(=N)N)C(=O)N[C@@H](CCC(=O)O)C(=O)N[C@@H](CCC(=O)O)C(N)=O [GIN 6] (Ac-ERKERKREEERKERKREE-NH2),> 40,"no, or poor, efficacy",–,–,–
CC(=O)N[C@@H](CCCNC(=N)N)C(=O)N[C@@H](CC(C)C)C(=O)N[C@@H](CC(C)C)C(=O)N[C@@H](CCCNC(=N)N)C(=O)N[C@@H](CC(C)C)C(=O)N[C@@H](CC(C)C)C(=O)N[C@@H](CCCNC(=N)N)C(=O)N[C@@H](CC(C)C)C(=O)N[C@@H](CC(C)C)C(=O)N[C@@H](CCCNC(=N)N)C(=O)N[C@@H](CC(C)C)C(=O)N[C@@H](CC(C)C)C(=O)N[C@@H](CCCNC(=N)N)C(=O)N[C@@H](CC(C)C)C(=O)N[C@@H](CC(C)C)C(=O)N[C@@H](CCCNC(=N)N)C(=O)N[C@@H](CC(C)C)C(=O)N[C@@H](CC(C)C)C(N)=O [GIN 10] (Ac-RLLRLLRLLRLLRLLRLL-NH2),–,"no, or poor, efficacy",39,39,–
"CC(=O)N[C@@H](CCCNC(=N)N)C(=O)N[C@@H](CC(=O)O)C(=O)N[C@@H](C)C(=O)N[C@@H](CC(=O)O)C(=O)N[C@@H](CC(=O)O)C(=O)N[C@@H](CC(C)C)C(=O)N[C@@H](CCC(N)=O)C(=O)N[C@@H](CCCCN)C(=O)N[C@@H](CCCNC(=N)N)C(=O)N[C@@H](CCCNC(=N)N)C(=O)N[C@@H](CC(=O)O)C(=O)N[C@@H](C)C(=O)N[C@@H](CC(=O)O)C(=O)N[C@@H](CC(=O)O)C(=O)N[C@@H](CC(C)C)C(=O)N[C@@H](CCC(N)=O)C(=O)N[C@@H](CCCCN)C(=O)N[C@@H](CCCNC(=N)N)C(N)=O [GIN 13, RDADDLQKR RDADDLQKR] (Ac-RDADDLQKRRDADDLQKR-NH2)",> 40,"no, or poor, efficacy",–,–,–
CSCC[C@H](NC(=O)[C@H](CCC(=O)O)NC(=O)[C@H](CCC(=O)O)NC(=O)[C@H](CCSC)NC(=O)[C@H](CCCNC(=N)N)NC(=O)[C@H](C)NC(=O)[C@H](CCCNC(=N)N)NC(=O)[C@H](CC(C)C)NC(=O)[C@H](CCCNC(=N)N)NC(=O)[C@H](CCSC)NC(=O)[C@H](CCC(=O)O)NC(=O)[C@H](CCC(=O)O)NC(=O)[C@H](CCSC)NC(=O)[C@H](CCCNC(=N)N)NC(=O)[C@H](C)NC(=O)[C@H](CCCNC(=N)N)NC(=O)[C@H](CC(C)C)NC(=O)[C@H](CCCNC(=N)N)NC(C)=O)C(N)=O [GIN 15] (Ac-RLRARMEEMRLRARMEEM-NH2),> 40,"no, or poor, efficacy",–,–,–
CC(=O)N[C@@H](CC(=O)O)C(=O)N[C@@H](Cc1c[nH]c2ccccc12)C(=O)N[C@@H](CC(C)C)C(=O)N[C@@H](CCCCN)C(=O)N[C@@H](C)C(=O)N[C@@H](Cc1ccccc1)C(=O)N[C@@H](Cc1ccc(O)cc1)C(=O)N[C@@H](CC(=O)O)C(=O)N[C@@H](CCCCN)C(=O)N[C@H](C(=O)N[C@@H](C)C(=O)N[C@@H](CCC(=O)O)C(=O)N[C@@H](CCCCN)C(=O)N[C@@H](CC(C)C)C(=O)N[C@@H](CCCCN)C(=O)N[C@@H](CCC(=O)O)C(=O)N[C@@H](C)C(=O)N[C@@H](Cc1ccccc1)C(N)=O)C(C)C [GIN 22] (Ac-DWLKAFYDKVAEKLKEAF-NH2),–,–,–,36,36

# Now from value to compound, other results behind:
IC50 [µM],Structure (SMILES),efficacy for reducing HSV1 infectivity (in words),"IC50 (HSV1, Vero cells, Table 4 (Example 2), read-out: Apparent IC50) [µM]",IC50 [1] [µM],"IC50 (HSV1, Vero cells, Table 5 (Example 2), read-out: Apparent IC50) [µM]"
> 40,CC(=O)N[C@@H](CC(C)C)C(=O)N[C@@H](CCCNC(=N)N)C(=O)N[C@@H](CCCCN)C(=O)N[C@@H](CCCNC(=N)N)C(=O)N[C@@H](CC(C)C)C(=O)N[C@@H](CC(C)C)C(=O)N[C@@H](CC(C)C)C(=O)N[C@@H](CCCNC(=N)N)C(=O)N[C@@H](CCCCN)C(=O)N[C@@H](CC(C)C)C(=O)N[C@@H](CCCNC(=N)N)C(=O)N[C@@H](CCCCN)C(=O)N[C@@H](CCCNC(=N)N)C(=O)N[C@@H](CC(C)C)C(=O)N[C@@H](CC(C)C)C(N)=O [GIN 2] (Ac-LRKRLLLRKLRKRLL-NH2),"no, or poor, efficacy",–,–,–
29.5,CC(=O)N[C@@H](CC(C)C)C(=O)N[C@@H](CCCNC(=N)N)C(=O)N[C@@H](CCCCN)C(=O)N[C@@H](CC(C)C)C(=O)N[C@@H](CCCNC(=N)N)C(=O)N[C@@H](CCCCN)C(=O)N[C@@H](CCCNC(=N)N)C(=O)N[C@@H](CC(C)C)C(=O)N[C@@H](CC(C)C)C(=O)N[C@@H](CC(C)C)C(=O)N[C@@H](CCCNC(=N)N)C(=O)N[C@@H](CCCCN)C(=O)N[C@@H](CC(C)C)C(=O)N[C@@H](CCCNC(=N)N)C(=O)N[C@@H](CCCCN)C(N)=O [GIN 4] (Ac-LRKLRKRLLLRKLRK-NH2),"no, or poor, efficacy",–,–,–
> 40,CC(=O)N[C@@H](CC(C)C)C(=O)N[C@@H](CCCNC(=N)N)C(=O)N[C@@H](CCCCN)C(=O)N[C@@H](CC(C)C)C(=O)N[C@@H](CCCNC(=N)N)C(=O)N[C@@H](CCCCN)C(=O)N[C@@H](CCCNC(=N)N)C(=O)N[C@@H](CC(C)C)C(=O)N[C@@H](CC(C)C)C(=O)N[C@@H](CC(C)C)C(=O)N[C@@H](CCCNC(=N)N)C(=O)N[C@@H](CCCCN)C(N)=O [GIN 5] (Ac-LRKLRKRLLLRK-NH2),"no, or poor, efficacy",–,–,–
13,CC(=O)N[C@@H](CC(C)C)C(=O)N[C@@H](CCCNC(=N)N)C(=O)N[C@@H](CCCCN)C(=O)N[C@@H](CC(C)C)C(=O)N[C@@H](CCCNC(=N)N)C(=O)N[C@@H](CCCCN)C(=O)N[C@@H](CCCNC(=N)N)C(=O)N[C@@H](CC(C)C)C(=O)N[C@@H](CCCNC(=N)N)C(=O)N[C@@H](CCCCN)C(=O)N[C@@H](CC(C)C)C(=O)N[C@@H](CCCNC(=N)N)C(=O)N[C@@H](CCCCN)C(=O)N[C@@H](CCCNC(=N)N)C(N)=O [GIN 8] (Ac-LRKLRKRLRKLRKR-NH2),had efficacy,–,–,–
15.5,CC(=O)N[C@@H](CC(C)C)C(=O)N[C@@H](CCCNC(=N)N)C(=O)N[C@@H](CCCCN)C(=O)N[C@@H](CC(C)C)C(=O)N[C@@H](CCCNC(=N)N)C(=O)N[C@@H](CCCCN)C(=O)N[C@@H](CC(C)C)C(=O)N[C@@H](CCCNC(=N)N)C(=O)N[C@@H](CCCCN)C(=O)N[C@@H](CC(C)C)C(=O)N[C@@H](CCCNC(=N)N)C(=O)N[C@@H](CCCCN)C(=O)N[C@@H](CC(C)C)C(=O)N[C@@H](CCCNC(=N)N)C(=O)N[C@@H](CCCCN)C(=O)N[C@@H](CC(C)C)C(=O)N[C@@H](CCCNC(=N)N)C(=O)N[C@@H](CCCCN)C(N)=O [GIN 9] (Ac-LRKLRKLRKLRKLRKLRK-NH2),had efficacy,–,–,–
> 40,"CC(=O)N[C@@H](CC(C)C)C(=O)N[C@@H](CCCNC(=N)N)C(=O)N[C@@H](CCCCN)C(=O)N[C@@H](CC(C)C)C(=O)N[C@@H](CCCNC(=N)N)C(=O)N[C@@H](CCCCN)C(=O)N[C@@H](CCCNC(=N)N)C(=O)N[C@@H](CC(C)C)C(=O)N[C@@H](CC(C)C)C(=O)N[C@@H](CCCNC(=N)N)C(=O)N[C@@H](CC(=O)O)C(=O)N[C@@H](C)C(=O)N[C@@H](CC(=O)O)C(=O)N[C@@H](CC(=O)O)C(=O)N[C@@H](CC(C)C)C(=O)N[C@@H](CCC(N)=O)C(=O)N[C@@H](CCCCN)C(=O)N[C@@H](CCCNC(=N)N)C(=O)N[C@@H](CC(C)C)C(=O)N[C@@H](C)C(N)=O [GIN 12, LRKLRKRLLR DADDLQKRLA] (Ac-LRKLRKRLLRDADDLQKRLA-NH2)","no, or poor, efficacy",–,–,–
> 40,CSCC[C@H](NC(=O)[C@H](CCCNC(=N)N)NC(=O)[C@H](C)NC(=O)[C@H](CCCNC(=N)N)NC(=O)[C@H](CC(C)C)NC(=O)[C@H](CCCNC(=N)N)NC(=O)[C@H](CCC(=O)O)NC(=O)CNC(=O)[C@H](CCC(=O)O)NC(=O)[C@H](CCSC)NC(=O)[C@H](CCCNC(=N)N)NC(=O)[C@H](C)NC(=O)[C@H](CCCNC(=N)N)NC(=O)[C@H](CC(C)C)NC(=O)[C@H](CCCNC(=N)N)NC(=O)[C@H](CCC(=O)O)NC(=O)CNC(C)=O)C(=O)N[C@@H](CCC(=O)O)C(N)=O [GIN 14] (Ac-GERLRARMEGERLRARME-NH2),"no, or poor, efficacy",–,–,–
